Source: patent US11925629B2, “Heterocyclic inhibitors of ERK1 and ERK2 and their use in the treatment of cancer” (Asana Biosciences, LLC, priority 2015, dated 2024)
Where two headings read alike, the source gives them in different places.

Columns and labels:
Type in all cases: cell-based, human
[1] = tested on: HCT116 (colorectal carcinoma, K Ras G13D) cells; test: Cell proliferation (Alamar Blue) assay, HCT116
Method in brief: (§1)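 Cells seeded at 5000/well and allowed 16-24 h at 37° C./5% CO2, then exposed to 3-fold serial dilutions (typically 0.0005 to 10 uM) for 72 h. Viability read by Alamar Blue (1×, 1-3 h) fluorescence at 540/590 nm; IC50 from variable-slope sigmoidal fit.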

[2] = tested on: phosphorylation of RSK1(S380) (the downstream target of ERK1/2); test: Phospho-RSK1(S380) ELISA assay in HT-29 cells; conditions: phospho-RSK1(S380), read-out: Mechanistic Cell Assay RSK1 Phos HT29 IC50
Protocol: Phospho-RSK1(S380) ELISA Assay
HT-29 cells (colorectal carcinoma, B-RafV600E); obtained from ATCC, USA) were seeded (60,000 cells/well) in a 96-well plate and incubated at 37° C./5% CO2 overnight and then treated with desired compound dilutions for 2 h. Medium was removed and cells were rinsed once with ice-cold 1×PBS, then 0.070 mL ice-cold 1× cell lysis buffer containing 1 mM PMSF was added to each well and the plate was incubated on a shaker for 2 h and 30 min at 4° C. The plate was then centrifuged for 20 min (×4000 rpm) at 4° C. and the supernatant was transferred to a new plate. Cell lysates were diluted with sample diluent at a ratio of 1:1. The ELISA was then carried out following the manufacturer's protocol (PathScan® phospho-RSK1(Ser380) Sandwich ELISA Kit, Cell Signaling Technologies). The plate was read at 450 nm within 30 min after adding STOP solution. The IC50 values were subsequently determined using a sigmoidal dose-response curve (variable slope) in GraphPad Prism® 5 software.

[3] = tested on: HT-29 (colorectal carcinoma, B-RafV600E) cells; test: Cell proliferation (Alamar Blue) assay, HT-29; conditions: Homo sapiens, HT-29, HT29 cells
Method in brief: as §1

[4] = Homo sapiens, HCT-116, HCT116 cells
[5] = Homo sapiens, HT-29, HT29 cells

SMILES	IC50 [1, 4]	IC50 [2, 5]	other results
Cc1cnc(NC2CCOCC2)nc1-n1cnc(C(=O)NC(c2cccc(Cl)c2)C(C)O)c1 (single isomer, unassigned; isomer #2) [Example 252, N-(1-(3-chlorophenyl)-2-hydroxypropyl)-1-(5-methyl-2-((tetrahydro-2H-pyran-4-yl)amino)pyrimidin-4-yl)-1H-imidazole-4-carboxamide (isomer #2)]	250 to 500 nM	100 to 250 nM	
Cc1cnc(Nc2ccc(Oc3ccccc3)cc2)nc1-n1cnc(C(=O)N[C@H](CO)c2cccc(Cl)c2)c1 (stereo in doubt) [Example 250, N-(1-(3-chlorophenyl)-2-hydroxyethyl)-1-(5-methyl-2-((4-phenoxyphenyl)amino)pyrimidin-4-yl)-1H-imidazole-4-carboxamide]	> 2500 nM	500 to 2500 nM	
Cc1cnc(Nc2ccc(F)cc2Cl)nc1-n1ccc(C(=O)N[C@H](CO)c2cccc(Cl)c2)c1 [Cmpd 29, (S)-1-(2-((2-chloro-4-fluorophenyl)-amino)-5-methyl-pyrimidin-4-yl)-N-(1-(3-chlorophenyl)-2-hydroxy-ethyl)-1H-pyrrole-3-carboxamide]		250 to 500 nM	
Cc1cnc(Nc2ccc(F)cc2)cc1-n1cnc(C(=O)NC(CN)c2ccccc2)c1 (centres unmarked) [Compound #191, N-(2-amino-1-phenylethyl)-1-(2-((4-fluorophenyl)amino)-5-methylpyridin-4-yl)-1H-imidazole-4-carboxamide]		100 to 250 nM	
O=C(Nc1cnn(-c2ccnc(Nc3ccccc3)c2)c1)N[C@H](CO)c1cccc(Cl)c1 [Example 34, (S)-1-(1-(3-chlorophenyl)-2-hydroxy-ethyl)-3-(1-(2-(phenyl-amino)pyridin-4-yl)-1H-pyrazol-4-yl)urea]	> 2500 nM	> 2500 nM	
Cc1cnc(NC2CCOCC2)nc1-n1cnc(C(=O)NCc2ccccc2CCO)c1 [Example 94, N-(2-(2-hydroxy-ethyl)benzyl)-1-(5-methyl-2-((tetrahydro-2H-pyran-4-yl)amino)pyrimidin-4-yl)-1H-imidazole-4-carboxamide]			IC50 ([1]; HCT116 cells): 500 to 2500 nM; IC50 ([2]; HT29 cells): 500 to 2500 nM
CC(=O)NCC(NC(=O)c1ccn(-c2cc(Nc3ccc(F)cc3)ncc2C)c1)c1ccccc1 (centres unmarked) [Example 135, N-(2-acetamido-1-phenylethyl)-1-(2-((4-fluorophenyl)-amino)-5-methyl-pyridin-4-yl)-1H-pyrrole-3-carboxamide]		500 to 2500 nM	
O=C(NC(CO)c1cccc(Cl)c1)c1ccn(-c2ccnc(NC3CCNC3)c2)c1 (centres unmarked) [Example 145, N-(1-(3-chloro-phenyl)-2-hydroxy-ethyl)-1-(2-(pyrrolidin-3-ylamino)pyridin-4-yl)-1H-pyrrole-3-carboxamide]		> 2500 nM	
Cc1cnc(NC2CCCCC2)nc1-n1cnc(C(=O)NC(CO)c2cccc(Cl)c2)c1 (centres unmarked) [Example 226, N-(1-(3-chlorophenyl)-2-hydroxyethyl)-1-(2-(cyclohexylamino)-5-methylpyrimidin-4-yl)-1H-imidazole-4-carboxamide]	> 2500 nM		IC50 [3]: 250 to 500 nM
O=C(N[C@H](CO)c1cccc(Cl)c1)c1ccn(-c2nc(NC3CCOCC3)ncc2F)c1 [Example 229, (S)-N-(1-(3-chlorophenyl)-2-hydroxyethyl)-1-(5-fluoro-2-((tetrahydro-2H-pyran-4-yl)amino)pyrimidin-4-yl)-1H-pyrrole-3-carboxamide]	500 to 2500 nM		IC50 [3]: ≤ 100 nM
Cc1cnc(Nc2ccc(F)cc2)cc1-n1cnc(C(=O)NC(CN)c2ccc(F)cc2)c1 (centres unmarked) [Example 230, N-(2-amino-1-(4-fluorophenyl)ethyl)-1-(2-((4-fluorophenyl)amino)-5-methylpyridin-4-yl)-1H-imidazole-4-carboxamide]	> 2500 nM		IC50 [3]: 500 to 2500 nM
Cc1cnc(NC2CCOCC2)nc1-n1cnc(C(=O)NC(CO)c2cccs2)c1 (centres unmarked) [Example 233, N-(2-hydroxy-1-(thiophen-2-yl)ethyl)-1-(5-methyl-2-((tetrahydro-2H-pyran-4-yl)amino)pyrimidin-4-yl)-1H-imidazole-4-carboxamide]	> 2500 nM	≤ 100 nM	
Cc1cnc(NC2CCOCC2)nc1-n1cnc(C(=O)NC(CO)c2ccsc2)c1 (centres unmarked) [Example 234, N-(2-hydroxy-1-(thiophen-3-yl)ethyl)-1-(5-methyl-2-((tetrahydro-2H-pyran-4-yl)amino)pyrimidin-4-yl)-1H-imidazole-4-carboxamide]		500 to 2500 nM	
Cc1cnc(NC2CCOC2)nc1-n1cnc(C(=O)NC(CN)c2cccc(Cl)c2)c1 (centres unmarked) [Example 235, N-(2-amino-1-(3-chlorophenyl)ethyl)-1-(5-methyl-2-((tetrahydrofuran-3-yl)amino)pyrimidin-4-yl)-1H-imidazole-4-carboxamide]	100 to 250 nM	100 to 250 nM	
Cc1cnc(NC2CCOCC2)nc1-n1cnc(C(=O)NC(CO)c2cccc(C(F)(F)F)c2)c1 (centres unmarked) [Example 237, N-(2-hydroxy-1-(3-(trifluoromethyl)phenyl)ethyl)-1-(5-methyl-2-((tetrahydro-2H-pyran-4-yl)amino)pyrimidin-4-yl)-1H-imidazole-4-carboxamide]	> 2500 nM	250 to 500 nM	
Cc1cccc(C(CO)NC(=O)c2cn(-c3nc(NC4CCOCC4)ncc3C)cn2)c1 (centres unmarked) [Example 238, N-(2-hydroxy-1-(m-tolyl)ethyl)-1-(5-methyl-2-((tetrahydro-2H-pyran-4-yl)amino)pyrimidin-4-yl)-1H-imidazole-4-carboxamide]	500 to 2500 nM	250 to 500 nM	
Cc1cnc(NC2CCC(F)(F)CC2)nc1-n1cnc(C(=O)N[C@H](CO)c2cccc(Cl)c2)c1 [Example 240, (S)-N-(1-(3-chlorophenyl)-2-hydroxyethyl)-1-(2-((4,4-difluorocyclohexyl)amino)-5-methylpyrimidin-4-yl)-1H-imidazole-4-carboxamide]	250 to 500 nM	100 to 250 nM	
Cc1cnc(Nc2ccc(F)cc2Cl)nc1-n1cnc(C(=O)N[C@H](CO)c2cccc(Cl)c2)c1 [Example 241, (S)-1-(2-((2-chloro-4-fluorophenyl)amino)-5-methylpyrimidin-4-yl)-N-(1-(3-chlorophenyl)-2-hydroxyethyl)-1H-imidazole-4-carboxamide]	> 2500 nM	250 to 500 nM	
Cc1cnc(N[C@H]2CC[C@@H](O)CC2)nc1-n1cnc(C(=O)N[C@H](CO)c2cccc(Cl)c2)c1 [Example 242, N-((S)-1-(3-chlorophenyl)-2-hydroxyethyl)-1-(2-(((1r,4S)-4-hydroxycyclohexyl)amino)-5-methylpyrimidin-4-yl)-1H-imidazole-4-carboxamide]	500 to 2500 nM	250 to 500 nM	
Cc1cnc(NC2CCOCC2)nc1-n1cnc(C(=O)NCc2ccccc2CCO)c1 [Example 243, N-(2-(2-hydroxyethyl)benzyl)-1-(5-methyl-2-((tetrahydro-2H-pyran-4-yl)amino)pyrimidin-4-yl)-1H-imidazole-4-carboxamide]		500 to 2500 nM	IC50 ([1]; HCT116 cells): > 2500 nM
Cc1cnc(NC2CCOCC2)nc1-n1cnc(C(=O)N[C@]2(c3cccc(Cl)c3)C[C@@H](O)C2)c1 [Example 245, N-((1s,3s)-1-(3-chlorophenyl)-3-hydroxycyclobutyl)-1-(5-methyl-2-((tetrahydro-2H-4-yl)amino)pyrimidin-4-yl)-1H-imidazole-4-carboxamide]	500 to 2500 nM	250 to 500 nM	
Cc1cnc(NC2CCS(=O)(=O)C2)nc1-n1cnc(C(=O)N[C@H](CO)c2cccc(Cl)c2)c1 (stereo partly drawn) [Example 246, N-((S)-1-(3-chlorophenyl)-2-hydroxyethyl)-1-(2-((1,1-dioxidotetrahydrothiophen-3-yl)amino)-5-methylpyrimidin-4-yl)-1H-imidazole-4-carboxamide]	> 2500 nM	> 2500 nM	
Cc1cnc(NC2CCOc3ccccc32)nc1-n1cnc(C(=O)N[C@H](CO)c2cccc(Cl)c2)c1 (stereo partly drawn) [Example 247, N-((S)-1-(3-chlorophenyl)-2-hydroxyethyl)-1-(2-(chroman-4-ylamino)-5-methylpyrimidin-4-yl)-1H-imidazole-4-carboxamide]	> 2500 nM	≤ 100 nM	
Cc1cnc(NC2CCOCC2)nc1-n1cnc(C(=O)NCc2sccc2CN)c1 [Example 294, N-((3-(aminomethyl)thiophen-2-yl)methyl)-1-(5-methyl-2-((tetrahydro-2H-pyran-4-yl)amino)pyrimidin-4-yl)-1H-imidazole-4-carboxamide]		> 2500 nM	
Cc1cnc(NC2CCOCC2)nc1-n1cnc(C(=O)N[C@H](CO)c2cc(F)cc(Cl)c2)c1 [Example 295, (S)-N-(1-(3-chloro-5-fluorophenyl)-2-hydroxyethyl)-1-(5-methyl-2-((tetrahydro-2H-pyran-4-yl)amino)pyrimidin-4-yl)-1H-imidazole-4-carboxamide]		≤ 100 nM	
Cc1cnc(NC2CCN(C)CC2)nc1-n1cnc(C(=O)N[C@H](CO)c2cccc(Cl)c2)c1 [Example 296, (S)-N-(1-(3-chlorophenyl)-2-hydroxyethyl)-1-(5-methyl-2-((1-methylpiperidin-4-yl)amino)pyrimidin-4-yl)-1H-imidazole-4-carboxamide]		500 to 2500 nM	
